“Also recorded” adds a separate entry of the source.
Tested on: rat forced swim test (FST)
Assay: Rat forced swim test (FST)
Assay type: in vivo
Details: single dose 10 mg/kg, IP, 30 min before testing
Experimental: The forced swim test (FST) is a classic model to assess the antidepressant-like activity of compounds that has been in use for over 40 years (Porsolt et al. (1977) Nature 266:730-732; Detke et al. (1995) Psychopharmacology 121:66-72). […] A single dose of 5 mg/kg methylone reduces immobility by approximately 50% compared to vehicle-treated controls, whereas a 15 mg/kg dose reduces immobility by nearly 100%. Accompanying changes in climbing and/or swimming behavior reflect noradrenergic and serotonergic activities of methylone, respectively.
All FST studies are performed and scored by an experimenter blind to treatment group and according to standard protocols. Briefly, rats are placed in a circular plexiglass container filled with water. Water temperature is maintained at 22-25° C. and changed for every animal. Day 1 (Training) consists of a 15 min acclimation trial, and Day 2 (Testing, 24 h later) consists of the 5 min test. A time sampling procedure is employed where animals are observed every 5 seconds for the duration of the test session (60 counts or 5 minutes) and scored for immobility (defined as the failure to struggle), swimming (defined as a circular movement around the tank), or climbing (defined as an upwards escape behavior). Data are expressed as the percent of the testing session (e.g., the number of immobility counts divided by 60). A p-value less than 0.05 indicates statistical significance after typical statistical analyses (e.g., unpaired t-test or ANOVA).
To determine that the prodrug and/or enantiomer has an antidepressant-like effect and to compare it to methylone, rats are treated with each compound 30 min prior to testing. Additional tests are run 24, 72, 168 hours post-dose or longer. Effects on Fear Extinction in a Model of Post-Traumatic Stress Disorder (PTSD)
Racemic methylone (10 mg/kg, IP) has a maximal antidepressant-like effect in the rat forced swim test (FST), reducing immobility by nearly 100% compared to vehicle treated controls. […]

Compound	antidepressant-like effect (immobility) compared to vehicle	antidepressant-like effect (immobility) compared to vehicle (10 mg/kg)
CN[C@H](C)C(=O)c1ccc2c(c1)OCO2 [(R)-methylone]	no effect	
CN[C@@H](C)C(=O)c1ccc2c(c1)OCO2 [(S)-methylone]		Mimics the Rapid and Robust Antidepressant-like Activity of Racemic Methylone; also recorded: mimicked the rapid and robust antidepressant-like effect of racemic methylone

From patent US20240374558A1, “PREPARATION OF PHENE[…] […] STEREOISOMERS THEREOF AND PRECURSORS THEREOF” (priority 2022, published 2024)
